Source: article PMC4780864, “Family-wide Structural Analysis of Human Numb-Associated Protein Kinases” (Structure(London, England:1993), 2016)

How the values were obtained:
Test in all cases: biochemical
[1] = target: T1, BIKE (Homo sapiens, UniProt Q9NSY1); set-up: Thermal shift assay (DSF, SYPRO Orange), 2 uM kinase domain, mean delta Tm of triplicates versus DMSO; conditions: read-out: BIKE
T1 construct: gene BMP2K; catalytic domain-containing construct
Description: (§1) All measurements were performed in triplicate and mean values were reported for all compounds (Table S1). […] However, NAKs are often omitted from selectivity panels, including commercial screens.

[2] = target: T2, GAK (Homo sapiens, UniProt O14976); set-up: Thermal shift assay (DSF, SYPRO Orange), 2 uM kinase domain, mean delta Tm of triplicates versus DMSO; conditions: read-out: GAK
T2 construct: catalytic domain-containing construct
T2 sequence (O14976 1-1311): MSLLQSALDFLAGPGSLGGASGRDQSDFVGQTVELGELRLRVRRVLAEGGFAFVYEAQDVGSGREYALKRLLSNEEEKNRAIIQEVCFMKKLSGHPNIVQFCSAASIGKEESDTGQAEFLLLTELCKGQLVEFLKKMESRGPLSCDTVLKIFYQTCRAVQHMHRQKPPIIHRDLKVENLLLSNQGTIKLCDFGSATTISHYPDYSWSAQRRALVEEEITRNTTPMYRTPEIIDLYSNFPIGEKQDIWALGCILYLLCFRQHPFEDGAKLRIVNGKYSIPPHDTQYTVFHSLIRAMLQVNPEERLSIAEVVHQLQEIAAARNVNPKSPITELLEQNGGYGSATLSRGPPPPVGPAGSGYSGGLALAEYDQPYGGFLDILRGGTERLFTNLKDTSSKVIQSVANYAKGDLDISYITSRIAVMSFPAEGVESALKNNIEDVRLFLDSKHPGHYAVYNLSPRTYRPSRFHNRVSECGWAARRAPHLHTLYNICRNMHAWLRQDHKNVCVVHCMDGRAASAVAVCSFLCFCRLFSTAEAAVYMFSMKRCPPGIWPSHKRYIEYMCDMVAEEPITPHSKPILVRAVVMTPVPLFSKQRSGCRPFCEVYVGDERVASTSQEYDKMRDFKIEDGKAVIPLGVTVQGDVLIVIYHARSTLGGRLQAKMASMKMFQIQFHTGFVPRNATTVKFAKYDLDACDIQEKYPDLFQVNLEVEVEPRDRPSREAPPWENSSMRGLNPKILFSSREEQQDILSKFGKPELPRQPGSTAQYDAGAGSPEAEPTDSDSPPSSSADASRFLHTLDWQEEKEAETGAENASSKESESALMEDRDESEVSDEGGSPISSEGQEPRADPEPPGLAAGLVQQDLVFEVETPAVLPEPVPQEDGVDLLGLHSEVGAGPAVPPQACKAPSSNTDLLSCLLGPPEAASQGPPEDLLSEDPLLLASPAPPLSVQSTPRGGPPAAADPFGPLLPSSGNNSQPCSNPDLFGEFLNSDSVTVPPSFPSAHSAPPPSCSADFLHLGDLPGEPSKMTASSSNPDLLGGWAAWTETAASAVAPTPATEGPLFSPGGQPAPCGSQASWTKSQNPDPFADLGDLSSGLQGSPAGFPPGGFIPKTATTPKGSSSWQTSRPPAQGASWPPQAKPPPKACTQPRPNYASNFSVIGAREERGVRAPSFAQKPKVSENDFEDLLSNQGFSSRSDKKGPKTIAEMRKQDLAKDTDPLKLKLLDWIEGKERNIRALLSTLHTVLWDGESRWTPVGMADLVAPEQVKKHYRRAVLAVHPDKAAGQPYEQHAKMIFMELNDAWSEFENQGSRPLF
Description: as §1

[3] = target: T3, MPSK1 (Homo sapiens, UniProt O75716); set-up: Thermal shift assay (DSF, SYPRO Orange), 2 uM kinase domain, mean delta Tm of triplicates versus DMSO; conditions: read-out: MPSK1
T3 construct: gene STK16; catalytic domain-containing construct
Description: as §1

[4] = target: AAK1 (Homo sapiens, UniProt Q2M2I8); set-up: kinase domain; Thermal shift assay (DSF, SYPRO Orange), 2 uM kinase domain, mean delta Tm of triplicates versus DMSO; conditions: read-out: AAK1
Description: as §1

AAK1, sequence (Q2M2I8 27-365 limits assumed): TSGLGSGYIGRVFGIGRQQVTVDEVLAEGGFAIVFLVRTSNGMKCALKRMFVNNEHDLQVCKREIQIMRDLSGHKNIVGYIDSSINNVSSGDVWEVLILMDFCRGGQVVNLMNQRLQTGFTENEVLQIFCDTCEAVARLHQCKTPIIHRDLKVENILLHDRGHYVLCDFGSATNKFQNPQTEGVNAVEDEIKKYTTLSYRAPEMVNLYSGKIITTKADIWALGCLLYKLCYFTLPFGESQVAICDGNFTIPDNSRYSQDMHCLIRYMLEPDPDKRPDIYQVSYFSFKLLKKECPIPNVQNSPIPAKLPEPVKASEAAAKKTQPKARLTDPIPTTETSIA
T1 sequence (Q9NSY1 whole entry, the tested form may be a part): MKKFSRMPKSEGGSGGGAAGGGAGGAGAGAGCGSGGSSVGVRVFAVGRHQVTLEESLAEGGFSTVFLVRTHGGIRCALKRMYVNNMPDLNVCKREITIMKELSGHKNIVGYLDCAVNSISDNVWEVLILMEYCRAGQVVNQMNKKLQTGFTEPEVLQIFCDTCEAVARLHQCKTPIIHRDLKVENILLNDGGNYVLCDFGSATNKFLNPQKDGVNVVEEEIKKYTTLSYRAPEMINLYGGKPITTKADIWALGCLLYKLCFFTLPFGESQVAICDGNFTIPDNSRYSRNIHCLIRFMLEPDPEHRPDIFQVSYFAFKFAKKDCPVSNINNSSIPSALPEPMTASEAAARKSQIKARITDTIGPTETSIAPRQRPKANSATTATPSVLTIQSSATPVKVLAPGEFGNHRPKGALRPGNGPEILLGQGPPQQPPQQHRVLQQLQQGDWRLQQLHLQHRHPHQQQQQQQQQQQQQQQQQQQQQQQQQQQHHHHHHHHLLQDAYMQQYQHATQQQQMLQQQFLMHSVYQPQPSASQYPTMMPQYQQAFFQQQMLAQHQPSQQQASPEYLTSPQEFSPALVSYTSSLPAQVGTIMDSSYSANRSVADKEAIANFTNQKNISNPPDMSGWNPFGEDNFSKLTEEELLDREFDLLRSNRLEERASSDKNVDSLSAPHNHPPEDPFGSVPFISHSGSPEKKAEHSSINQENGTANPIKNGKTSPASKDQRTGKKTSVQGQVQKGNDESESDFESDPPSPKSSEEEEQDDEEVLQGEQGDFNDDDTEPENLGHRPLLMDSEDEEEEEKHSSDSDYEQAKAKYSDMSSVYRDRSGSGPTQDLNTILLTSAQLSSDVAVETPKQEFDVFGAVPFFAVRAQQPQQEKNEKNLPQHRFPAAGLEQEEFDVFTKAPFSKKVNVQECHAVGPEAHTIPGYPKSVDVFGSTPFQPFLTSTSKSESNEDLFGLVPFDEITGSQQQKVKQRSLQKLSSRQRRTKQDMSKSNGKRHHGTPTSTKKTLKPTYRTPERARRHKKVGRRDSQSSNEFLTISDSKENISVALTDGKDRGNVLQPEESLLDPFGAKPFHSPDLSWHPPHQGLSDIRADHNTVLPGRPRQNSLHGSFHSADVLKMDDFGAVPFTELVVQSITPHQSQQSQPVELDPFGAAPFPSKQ
T3 sequence (O75716 whole entry, the tested form may be a part): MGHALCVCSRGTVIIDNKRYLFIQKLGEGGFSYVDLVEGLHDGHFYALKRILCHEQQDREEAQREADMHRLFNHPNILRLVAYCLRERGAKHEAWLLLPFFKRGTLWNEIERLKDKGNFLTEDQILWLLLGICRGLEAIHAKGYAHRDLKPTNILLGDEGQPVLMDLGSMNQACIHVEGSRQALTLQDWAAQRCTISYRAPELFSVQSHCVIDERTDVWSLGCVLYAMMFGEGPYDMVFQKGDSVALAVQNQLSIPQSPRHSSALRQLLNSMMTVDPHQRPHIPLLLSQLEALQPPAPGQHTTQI

`COc1cc2c(Oc3ccc(NC(=O)C4(C(=O)Nc5ccc(F)cc5)CC4)cc3F)ccnc2cc1OCCCN1CCOCC1` [Foretinib] was tested, and the ΔTm at 12.5 µM [1] was 1.32 °C, the ΔTm at 12.5 µM [2] was 2.36 °C and the ΔTm at 12.5 µM [3] was 1.87 °C. For the same molecule, the ΔTm at 12.5 µM [4] was 1.13 °C.
Work on `CCn1c(-c2nonc2N)nc2cnc(Oc3cccc(NC(=O)c4ccc(OCCN5CCOCC5)cc4)c3)cc21` [GSK269962] yielded a ΔTm at 12.5 µM [1] of 6.73 °C, a ΔTm at 12.5 µM [2] of 0.157 °C and a ΔTm at 12.5 µM [3] of 2.88 °C. For the same molecule, the ΔTm at 12.5 µM [4] was 7.43 °C.
`O=C(O)c1ccc(-c2c[nH]c3ncc(-c4ccccc4)cc23)cc1C1CCCC1` [GSK650394] showed a ΔTm at 12.5 µM [1] of 13 °C, a ΔTm at 12.5 µM [2] of 7.69 °C and a ΔTm at 12.5 µM [3] of 8.84 °C. The ΔTm at 12.5 µM [4] was 8.29 °C.
`CNC(=O)c1c(F)cccc1Nc1nc(Nc2cc3c(ccn3C(=O)CN(C)C)cc2OC)nc2[nH]ccc12` [GSK1838705A] gave a ΔTm at 12.5 µM [1] of 0.543 °C, a ΔTm at 12.5 µM [2] of 0.74 °C and a ΔTm at 12.5 µM [3] of 1.27 °C. The ΔTm at 12.5 µM [4] was 0.143 °C.
In the case of `CCc1cc(Nc2nccc(-c3c(-c4ccc(OC)c(C(=O)Nc5c(F)cccc5F)c4)nc4ccccn34)n2)c(OC)cc1N1CCC(N2CCN(S(C)(=O)=O)CC2)CC1` [GSK1904529A], the ΔTm at 12.5 µM [1] is reported as 0.13 °C, the ΔTm at 12.5 µM [2] is reported as 0.227 °C and the ΔTm at 12.5 µM [3] is reported as -0.0133 °C. It also gave a ΔTm at 12.5 µM [4] of -0.16 °C.
`COc1ncc(-c2ccc3nccc(-c4ccnnc4)c3c2)cc1NS(=O)(=O)c1ccc(F)cc1F` [GSK2126458] gave a ΔTm at 12.5 µM [1] of 5.45 °C, a ΔTm at 12.5 µM [2] of 3.33 °C and a ΔTm at 12.5 µM [3] of 6.45 °C. For the same molecule, the ΔTm at 12.5 µM [4] was 4.05 °C.
With `CNc1nc(-c2ccc3c(N)n[nH]c3c2)cc(N2C[C@@H](C(=O)NC3CCCCC3)CC[C@H]2C)n1` [GSK2334470] the ΔTm at 12.5 µM [1] was 5.35 °C, the ΔTm at 12.5 µM [2] was 1.69 °C and the ΔTm at 12.5 µM [3] was 0.883 °C. The ΔTm at 12.5 µM [4] was 4.98 °C.
For `Cc1c(Cn2c(C)nc3c(C(=O)O)cc(N4CCOCC4)cc32)cccc1C(F)(F)F` [GSK2636771], the ΔTm at 12.5 µM [1] was 0.39 °C, the ΔTm at 12.5 µM [2] was -0.483 °C and the ΔTm at 12.5 µM [3] was 0.763 °C. It also gave a ΔTm at 12.5 µM [4] of 0.317 °C.
For `Cc1cccc(-c2nn3c(c2-c2ccnc4ccc(C(N)=O)cc24)CCC3)n1` [Galunisertib], the ΔTm at 12.5 µM [1] was 0.583 °C, the ΔTm at 12.5 µM [2] was 3.39 °C and the ΔTm at 12.5 µM [3] was 0.97 °C. For the same molecule, the ΔTm at 12.5 µM [4] was 0.47 °C.
`Cc1cc(Nc2cc(CN3CCOCC3)c3nc(C)c(Cc4ccc(Cl)cc4F)n3n2)n[nH]1` [Gandotinib] gave a ΔTm at 12.5 µM [1] of 10.2 °C, a ΔTm at 12.5 µM [2] of 0.333 °C and a ΔTm at 12.5 µM [3] of 9.07 °C. The ΔTm at 12.5 µM [4] was 6.86 °C.
`COc1cc2ncnc(Nc3ccc(F)c(Cl)c3)c2cc1OCCCN1CCOCC1` [Gefitinib] showed a ΔTm at 12.5 µM [1] of 2.84 °C, a ΔTm at 12.5 µM [2] of 6.66 °C and a ΔTm at 12.5 µM [3] of 0.263 °C. For the same molecule, the ΔTm at 12.5 µM [4] was 1.69 °C.
Molecule `CC(C)n1nc(-c2ccc3oc(N)nc3c2)c2c(N)ncnc21` [INK128] has a ΔTm at 12.5 µM [1] of 0.41 °C, a ΔTm at 12.5 µM [2] of 0.577 °C and a ΔTm at 12.5 µM [3] of 1.64 °C. The ΔTm at 12.5 µM [4] was 0.0667 °C.
`C[C@H](Nc1ncnc2nc[nH]c12)c1cc2cccc(Cl)c2c(=O)n1-c1ccccc1` [IPI-145] gave a ΔTm at 12.5 µM [1] of 0.24 °C, a ΔTm at 12.5 µM [2] of -0.497 °C and a ΔTm at 12.5 µM [3] of 0.847 °C. It also gave a ΔTm at 12.5 µM [4] of 0.21 °C.
`C=CC(=O)N1CCC[C@@H](n2nc(-c3ccc(Oc4ccccc4)cc3)c3c(N)ncnc32)C1` [Ibrutinib] gave a ΔTm at 12.5 µM [1] of 0.397 °C, a ΔTm at 12.5 µM [2] of -0.293 °C and a ΔTm at 12.5 µM [3] of 1.76 °C. The ΔTm at 12.5 µM [4] was 0.0167 °C.
Molecule `C#Cc1cccc(Nc2ncnc3cc4c(cc23)OCCOCCOCCO4)c1` [Icotinib] has a ΔTm at 12.5 µM [1] of 4.47 °C, a ΔTm at 12.5 µM [2] of 3.33 °C and a ΔTm at 12.5 µM [3] of 0.81 °C. The ΔTm at 12.5 µM [4] was 2.56 °C.
For `CC[C@H](Nc1ncnc2[nH]cnc12)c1nc2cccc(F)c2c(=O)n1-c1ccccc1` [Idelalisib], the ΔTm at 12.5 µM [1] was 0.527 °C, the ΔTm at 12.5 µM [2] was 1.01 °C and the ΔTm at 12.5 µM [3] was 1.52 °C. For the same molecule, the ΔTm at 12.5 µM [4] was 0.29 °C.
In the case of `CC(C)NC[C@@H](C(=O)N1CCN(c2ncnc3c2[C@H](C)C[C@H]3O)CC1)c1ccc(Cl)cc1` [Ipatasertib], the ΔTm at 12.5 µM [1] is reported as 0.34 °C, the ΔTm at 12.5 µM [2] is reported as -0.727 °C and the ΔTm at 12.5 µM [3] is reported as 0.84 °C. It also gave a ΔTm at 12.5 µM [4] of 0.3 °C.
